According to patent US4874526A, “Treatment of water” (Ciba-Geigy Corporation, priority 1981, dated 1989):
Where two headings read alike, the source gives them in different places.

How the values were obtained:
[1] = Standard Ross-Miles foam test; assay type: physicochemical; conditions: 0.05%; for foam production: compared with S or 22
[2] = test system: mixed culture of bacteria; assay: Minimum concentration required to kill a given number of organisms (MKC), mixed culture of slime-forming bacteria, 5 hours exposure; assay type: cell-based
Procedure: The effect of the number of organisms present on the biological activity of tri-n-butyl tetradecyl phosphonium chloride was compared with that for various quaternary ammonium compounds. This was done by measuring the MKC value i.e. the minimum concentration (expressed in ppm active ingredient) of chemical required to kill a given number or organisms. In the test carried out, a suspension of a mixed culture of bacteria containing the following slime-forming organisms:
Proteus vulgaris was diluted to give suspensions containing 10^6 /ml (A), 10^5 /ml (B) and 10^4 /ml (C) bacteria. These suspensions were then exposed to varying concentrations of the biocides for 5 hours and the MKC value measured.

Haematococcus lacustris = assay: Algal growth inhibition (MIC), strain C (Example 7); assay type: cell-based
Procedure: (§1) The algae was diluted (1 to 200) in further algae medium and the phosphonium compounds added to give final concentrations of 1, 2.5, 3.4 and 6.8 ppm active ingredient. The algal suspensions were then incubated in a shaking water bath at 18° C., with a daily cycle of 14 hours light and 10 hours darkness. The suspensions were assessed visually for growth of algae and the Minimum Inhibition Concentration (MIC) was recorded as the lowest concentration of product at which there was no growth for each algal strain. A similar experiment was also carried out using a mixed algal culture including strains a to d together with the following strains:
The activity of the phosphonium compounds listed below against three strains of algae is determined according to the procedure set out in example 5. The three strains of algae are:
Haematococcus lacustris (C)

Tribonema aequale = assay: Algal growth inhibition (MIC), strain B (Example 7); assay type: cell-based
Procedure: as §1
(§2) The activity of the phosphonium compounds listed below against three strains of algae is determined according to the procedure set out in example 5.

Scenedesmus obliquus = assay: Algal growth inhibition (MIC), strain A (Example 7); assay type: cell-based; conditions: Tetradesmus obliquus
Procedure: as §1, §2

[3] = Surface tension of dilute aqueous solutions (Example 2); assay type: physicochemical; conditions: FIG. 8, in comparison with 22
Procedure: The surface activity of the following compounds was measured by determining the surface tension of dilute aqueous solutions of the chemicals: […]

[4] = Foaming in the cooling system (Example 6); assay type: physicochemical
germs = assay: Survival rate of germs in circulation systems with cooling tower; conditions: 3 h, 20 ppm active ingredient, read-out: Survival rate of germs 3h after biocide addition
Procedure: The compounds below were tested in circulation systems, set up on a roof, and consisting of the following:
1. A plastic barrel having a volume of 113 liters.
2. A Siemens pump (21 liters/minute delivery at a delivery hight of 3 meters).
3. A cooling tower with Oreogn pine heartwood, oak, spruce, asbestos cement and PVC panels.
120-124 liters of make-up water were added daily to achieve a half-life in the system of about one day.
The systems were inoculated naturally with airborne dust, spores and pollen.
The systems were treated with compound to be tested on the first day then on day 7, day 21 and over 45 days. The number of germs/ml of water in the system is measured before and 3 hours after addition of the compound being tested.
The germ count was carried out by standard serial dilution and plating out on Agar nutrient and, afer incubation, counting the bacterial colonies present on the surface.
In each case the dosage of compound added was 20 ppm active ingredient.

[5] = Reduction of the surface tension of water (Example 6); assay type: physicochemical; conditions: distilled water 72.8 dynes/cm
Procedure: The effect of respective test compounds on the surface tension of water was also determined, the results being shown in the following Table:
Reduction of the surface tension.

Scenedesmus spec. = assay: Algal growth inhibition (MIC), strain d (Example 5); assay type: cell-based
Procedure: (§3) Cultures of the following strains of algae were grown in algae nutrient medium over a period of 14 days:
as §1, with “strains: […]” for “strains:”

Phormidium foveolarum = assay: Algal growth inhibition (MIC), strain b (Example 5); assay type: cell-based; conditions: Nodosilinea foveolarum
Procedure: as §3
(b) Phormidium foveolarum
as §1, with “strains: […]” for “strains:”

Chlorella vulgaris = assay: Algal growth inhibition (MIC), strain c (Example 5); assay type: cell-based
Procedure: as §3
as §1, with “strains: […]” for “strains:”

mixed algal culture = assay: Algal growth inhibition (MIC), mixed algal culture (Example 5); assay type: cell-based
Procedure: as §1
In this experiment the concentrations of phosphonium compounds present were 2, 5, 7.5 and 10 ppm.

Oscillatoria geminata = assay: Algal growth inhibition (MIC), strain a (Example 5); assay type: cell-based; conditions: Jaaginema geminatum
Procedure: as §3
(a) Oscillatoria geminata
as §1, with “strains: […]” for “strains:”

algae = assay: Anti-algal effect, algae in general; assay type: cell-based; conditions: compared with triphenyl-dodecyl phosphonium chloride
Text: The anti-algal effect of the respective test compounds was also examined. […] Thus, the compound of the invention when used in an amount of 1 ppm inhibited the algal strains chlorella vulgaris snd scenedesmus spec. (which strains are very significant strains in cooling systems) where 2, 5 or 10 ppm was required when using triphenyl-dodecyl phosphonium chloride.

[6] = read-out: MKC, A: 10^6/ml bacteria, ppm active ingredient
[7] = read-out: MKC, B: 10^5/ml bacteria, ppm active ingredient
[8] = read-out: MKC, C: 10^4/ml bacteria, ppm active ingredient

Compound: CCCCCCCCCC[N+](C)(C)CCCCCCCCCC.[Cl-] [Dimethyl di-n-decyl ammonium chloride, dimethyl di-n-decyl ammonium chloride, reference compound]
- Foam Height ([1]; 1 minute): 45 mm
- Foam Height ([1]; 30 minutes): 40 mm
- Foam Height ([1]; 60 minutes): 38 mm
- MBC [2, 6]: 25 µg/mL
- MBC [2, 7]: 25 µg/mL
- MBC [2, 8]: 12.5 µg/mL

Compound: CCCCCCCCCCCC[P+](CCCC)(CCCC)CCCC.[Cl-] [Tri-n-butyl dodecyl phosphonium chloride, tri-n-butyl dodecyl phosphonium chloride]
- Foam Height ([1]; 1 minute): 18 mm
- Foam Height ([1]; 30 minutes): 6 mm
- Foam Height ([1]; 60 minutes): 4 mm
- foam production [1]: much less foam than S or 22
- MIC (Haematococcus lacustris; strain C, read-out: MIC): 1 µg/mL
- MIC (Tribonema aequale; strain B, read-out: MIC): 1 µg/mL
- MIC (Scenedesmus obliquus; strain A, read-out: MIC): 2 µg/mL
- surface activity [3]: high surface activity

Compound: CCCCCCCCCCCC[P+](c1ccccc1)(c1ccccc1)c1ccccc1.[Cl-] [Triphenyl dodecyl phosphonium chloride, triphenyl dodecyl phosphonium chloride, reference compound]
- foaming in the cooling system [4]: some foaming problems were encountered
- MIC (Haematococcus lacustris): 3 µg/mL
- viability at 20 ppm (germs; 0 d): 3%
- viability at 20 ppm (germs; 7 d): 72%
- viability at 20 ppm (germs; 21 d): 110%
- viability at 20 ppm (germs; >45 d): 130%
- Surface tension ([5]; 5 mg/l): 60.2 dynes/cm
- Surface tension ([5]; 10 mg/l): 59.5 dynes/cm
- Surface tension ([5]; 15 mg/l): 57.9 dynes/cm
- Surface tension ([5]; 20 mg/l): 56.4 dynes/cm
- Surface tension ([5]; 30 mg/l): 53.7 dynes/cm
- MIC (Tribonema aequale): 3 µg/mL
- MIC (Scenedesmus obliquus): 3 µg/mL
- MIC (Scenedesmus spec.): 3.4 µg/mL
- MIC (Phormidium foveolarum): 1 µg/mL
- MIC (Chlorella vulgaris): 2.5 µg/mL
- MIC (mixed algal culture): 7.5 µg/mL
- MIC (Oscillatoria geminata): 2.5 µg/mL

Compound: CCCCCCCCCCCCCC[P+](c1ccccc1)(c1ccccc1)c1ccccc1.[Br-] [Triphenyl tetradecyl phosphonium bromide, reference compound]
- MIC (Haematococcus lacustris; strain C, read-out: MIC): 6 µg/mL
- MIC (Tribonema aequale; strain B, read-out: MIC): 3 µg/mL
- MIC (Scenedesmus obliquus; strain A, read-out: MIC): 6 µg/mL

Compound: CCCCCCCCCCCCCC[P+](CCCC)(CCCC)CCCC.[Br-] [tri-n-butyl tetradecyl phosphonium bromide]
- MIC (Haematococcus lacustris; strain C, read-out: MIC): 2 µg/mL
- MIC (Tribonema aequale; strain B, read-out: MIC): 0.3 µg/mL
- MIC (Scenedesmus obliquus; strain A, read-out: MIC): 2 µg/mL
- MIC (Scenedesmus spec.; strain d, 18° C., ppm active ingredient, read-out: MIC): 1 µg/mL
- MIC (Phormidium foveolarum; strain b, 18° C., ppm active ingredient, read-out: MIC): 1 µg/mL
- MIC (Chlorella vulgaris; strain c, 18° C., ppm active ingredient, read-out: MIC): 1 µg/mL
- MIC (mixed algal culture; mixed culture, concentrations 2, 5, 7.5 and 10 ppm, read-out: MIC): 2 µg/mL
- MIC (Oscillatoria geminata; strain a, 18° C., ppm active ingredient, read-out: MIC): 2.5 µg/mL

Compound: CCCCCCCCCCCCCC[P+](CCCC)(CCCC)CCCC.[Cl-] [tri-n-butyl tetradecyl phosphonium chloride]
- Foam Height ([1]; 1 minute): 33 mm
- Foam Height ([1]; 30 minutes): 19 mm
- Foam Height ([1]; 60 minutes): 10 mm
- foam production [1]: much less foam than S or 22
- viability at 20 ppm (germs; 0 d): 1%
- viability at 20 ppm (germs; 7 d): 9%
- viability at 20 ppm (germs; 21 d): 6%
- viability at 20 ppm (germs; >45 d): 8%
- Surface tension ([5]; 5 mg/l): 52.9 dynes/cm
- Surface tension ([5]; 10 mg/l): 48.8 dynes/cm
- Surface tension ([5]; 15 mg/l): 47.1 dynes/cm
- Surface tension ([5]; 20 mg/l): 45.6 dynes/cm
- Surface tension ([5]; 30 mg/l): 42.3 dynes/cm
- MIC (Tribonema aequale): 2 µg/mL
- activity against algae (algae): more active against algae than triphenyl-dodecyl phosphonium chloride
- MBC [2, 6]: 12.5 µg/mL
- MBC [2, 7]: 12.5 µg/mL
- MBC [2, 8]: 12.5 µg/mL
- MIC (mixed algal culture): 5 µg/mL
- surface activity [3]: high surface activity
